We go through three molecules from patent US10745731B2, “Recombinant production method” (Hoffmann-La Roche Inc., priority 2015, dated 2020).

Where two headings read alike, the source gives them in different places.

The subject of data set [1] is HEK293F cells. Format: cell-based. As for the experimental part:
(§1) To determine cell viability and viable cell density (VCD) 1 mL cultivation medium (cell suspension) was transferred into a Cedex low fouling sample cup. The cup was placed into a Vicell instrument (Beckman Coulter). The instrument mixes cells with trypan blue to stain dead cells. After analysis of 50 images VCD was calculated and viability was determined by calculation of the percentage of viable cell number in relation to the total cell number.

In data set [2] the test system is HDAC. The data set can be described thus: in situ HDAC activity fluorimetric assay in HEK293F cells. Format: cell-based, human. As for the experimental part:
HDAC activity was determined by the in situ HDAC activity fluorimetric assay kit (Biovision) according to the manufacturer's instructions. HEK293F cells were suspended in F17 medium (Life Technologies) to a cell density of 5*10^5 cells/mL. One hundred micro liter culture was pipetted per well into a black ELISA plate. The plate was centrifuged at 1000 g for 5 min. The supernatant was discarded and the cells were resuspended in a reaction mix containing F17 medium, 1% HDAC substrate and the molecule tested towards HDAC inhibitory activity. 10 μM Trichostatin A was used as a positive control and the basal HDAC activity was determined by re-suspending the cells in F17 medium with 1% HDAC substrate. Furthermore, cells were resuspended in F17 medium without HDAC substrate as a background control. The HDAC activity assay was performed in triplicates for every sample as well as every control. The 96-well plate was incubated at 36.5° C., 80% humidity and 7% CO2 for one hour. During this time, the active HDACs deacetylate the HDAC substrate what releases the quenched fluorescent signal of the substrate. After incubation the fluorescent signal was analyzed by the infinite fluorescence plate reader (TECAN). The fluorescence signal of the samples and controls was normalized by subtracting the fluorescence signal of the background control. It is assumed that the fluorescent signal arising from deacetylation of the substrate directly correlates with HDAC activity.

The test system of data set [3] is HEK293F cells. The experiment in a line: Transient gene expression in HEK293F cells: cell specific productivity of the expressed antibody. Format: cell-based, human. The note with it: for specific productivity after 96 hours: none 2.01. As for the experimental part:
HEK293F cells were cultivated in F17 medium (Life Technologies) in shaker flasks at 36.5° C., 7.0% CO2 and 80% humidity in a shaker incubator (Kuhner, Mytron). Cells were split every three to four days and were cultivated no longer than five weeks. To avoid overgrowth and to keep them in the exponential phase of growth, viable cell densities (VCD) never exceeded 60*10^5 cells/mL.
(§2) Transient gene expression is a 5-7 days lasting procedure. The standard operating procedure of this expression system is applicable to shaker flasks with various volumes of cell culture ranging from 80 mL to 2 L. First, half of the cell culture volume is seeded at a viable cell density (VCD) of 8*10^5 cells/mL. After two days of cultivation, cells are split to a VCD of about 12*10^5 cells/mL. On the next day, cells are transfected with a polyethylene imine (PEI)-based transfection reagent at a VCD between 20*10^5 cells/mL and 25*10^5 cells/mL. 3 hours after transfection, the production enhancer (if any) is added. 24 h after transfection, a feeding solution and a glucose bolus is supplemented to avoid the limitation of nutrients. Depending on cell viability, which should not decrease below 50%, the supernatant is harvested five to seven days post transfection and subjected to antibody purification.
(§3) To compare transient gene expression rates always the same plasmids encoding for one distinct antibody were co-transfected.
(§4) To co-transfect two plasmids equimolarily, the ratio of the base pair number of one plasmid to the total base pair number was calculated and multiplied with the total amount of DNA (0.5 mg/L). Plasmid one has a size of 10530 bp and plasmid two has a size of 7184 bp and were solved in water to a final concentration of 1 mg/mL. For transfection of one liter cell culture, 297 μL of plasmid one and 203 μl of plasmid two were dissolved in 40 mL phosphate buffered saline (PBS) at room temperature. 1.25 mL JetPEI® solution was added and the solution was mixed well. After incubation for 10-15 min., the mixture was added to the cells. The cells were transfected in a batch containing the whole cell culture necessary for every experiment to avoid variance arising from different transfection efficiencies.
(§5) 80 mL of the transfected cell culture batch was added to a 125 ml shaker flask. For every experiment, two or three 125 mL shaker flasks were used as biological replicates and treated the same way. Three hours after transfection, cells were split into 125 mL shaker flasks and the cellular treatments with small molecules or ligands were started. Basal protein expression was determined by untreated control samples. To compare samples with the standard operating procedure, cells were also treated with VPA to a final concentration of 4 mM or 3 mM. VPA and its analogues were dissolved in double distilled water. […] Tumor necrosis factor (TNF) alpha was reconstituted with PBS supplemented with 0.1% BSA. Flagellin was dissolved in sterile double distilled water. The applied molecules were not added to the cultivation directly, but diluted in 16 mL medium pre-warmed to 36.5° C. and added to the cultivation thereafter.
(§6) 24 h after transfection a feeding solution at 36.5° C. and 3 mg/mL glucose were added to the cultivation.
as §1
Total concentration of the transiently expressed antibody was determined by a turbidimetric test. One mL cell suspension was transferred into an Eppendorf cup and centrifuged for 10 min. at 10,000 rpm (9,300 g).

For data set [4], the system named is HEK293F cells. The experiment in a line: Transient gene expression in HEK293F cells: IgG concentration / titer (turbidimetric test). Format: cell-based, human. As for the experimental part:
as §2, §3, §4, §5, §6
Total concentration of the transiently expressed antibody was determined by a turbidimetric test. One mL cell suspension was transferred into an Eppendorf cup and centrifuged for 10 min. at 10,000 rpm (9,300 g). The supernatant was transferred into a new cup and subjected to Cobas Integra 400 plus (Roche) analysis. With comparison to internal standard the absolute concentration was calculated.

The subject of data set [5] is HDAC. To be noted: description from the literature; cited from earlier work.

Take `CCCC(CCC)C(=O)O` [valproic acid, 2-propylpentanoic acid]: in the data set on HEK293F cells [1] (in contrast to other HDACi tested), the “growth inhibition and cell death” value is “induce growth inhibition and cell death”. In addition, in the data set on HDAC [2] (3 mM, N=3, FIG. 3A), the HDACi was found to be 58%. The HDAC inhibition result in the data set with HDAC [2] (yes/no, summary table) is “yes”. The “cell specific productivity with BAY11-7082 addition compared to the single treatment” value in the data set with HEK293F cells [3] (15 μM BAY11-7082 added 24 h after transfection) was “significantly reduced”. In addition, the “specific productivity after 96 hours” value in the data set with HEK293F cells [3] (3 mM, single treatment, N=3) is on record as 4.92 pg/cell/day. In addition, the activity at 500 µM in the data set with HEK293F cells [3] (Homo sapiens, HEK293F, 0.5 mM, sole enhancer, control=100, N=2, FIG. 1, read-out: relative cell specific productivity) was 184%. Also, the activity at 1000 µM in the data set on HEK293F cells [3] (Homo sapiens, HEK293F, 1 mM, sole enhancer, control=100, N=2, FIG. 1, read-out: relative cell specific productivity) stood at 204%. Besides, the activity at 2000 µM in the data set on HEK293F cells [3] (Homo sapiens, HEK293F, 2 mM, VPA/2M2P combination study, none=100, N=3, read-out: relative cell specific productivity) was determined as 278%; in the data set with HEK293F cells [3] (Homo sapiens, HEK293F, 2 mM, VPA/Quisinostat combination study, none=100, N=3, read-out: relative cell specific productivity), 278%; in the data set on HEK293F cells [3] (Homo sapiens, HEK293F, 2 mM, sole enhancer, control=100, N=2, FIG. 1, read-out: relative cell specific productivity), 246%. Further, the activity at 3000 µM in the data set with HEK293F cells [3] (Homo sapiens, HEK293F, 3 mM, single treatment, none=100, N=3, read-out: relative cell specific productivity) is 237%; in the data set on HEK293F cells [3] (Homo sapiens, HEK293F, 3 mM, sole enhancer, control=100, N=2, FIG. 1, read-out: relative cell specific productivity), 284%; with HEK293F cells [3] (Homo sapiens, HEK293F, 3 mM, transfected control=100, N=3, FIG. 3B, read-out: relative cell specific productivity), 316%. Moreover, the activity at 4000 µM in the data set on HEK293F cells [3] (Homo sapiens, HEK293F, 4 mM, sole enhancer, control=100, N=2, FIG. 1, read-out: relative cell specific productivity) amounted to 273%; in the data set with HEK293F cells [3] (Homo sapiens, HEK293F, employed concentration 4 mM, none=100, N=2, FIG. 2B, read-out: relative cell specific productivity) it was 326%; in the data set with HEK293F cells [3] (Homo sapiens, HEK293F, employed concentration 4 mM, none=100, N=2, FIG. 4, read-out: relative cell specific productivity), 315%. Also, the activity at 6000 µM in the data set with HEK293F cells [3] (Homo sapiens, HEK293F, 6 mM, sole enhancer, control=100, N=2, FIG. 1, read-out: relative cell specific productivity) stood at 223%. In the data set with HEK293F cells [3] (conc. 3 mM, untreated 1.71), the “Mean cell specific productivity” value was 5.4 (3 mM) pg/cell/24 h. The “Effect on titer/SPR” value in the data set with HEK293F cells [3] (summary table, in words) is “strong”. In addition, the “relative IgG concentration” value in the data set with HEK293F cells [4] (2 mM, VPA/2M2P combination study, none=100, N=3) stood at 217%; in the data set on HEK293F cells [4] (2 mM, VPA/Quisinostat combination study, none=100, N=3) it was 217%; in the data set with HEK293F cells [4] (4 mM, none=100, N=3, FIG. 6B), 173%; in the data set on HEK293F cells [4] (4 mM, none=100, N=3, FIG. 8B), 173%; in the data set on HEK293F cells [4] (4 mM, none=100, N=3, FIG. 9B), 173%. The final titer with HEK293F cells [4] (3 mM, none 39.8, N=3) was determined as 68.8 mg/L. Further, in the data set with HEK293F cells [4] (3 mM, none=100, N=1), the relative titer came to 188%.
`CCCC(CCC)C(N)=O` [valpromide]: the HDAC inhibitory activity result in the data set with HDAC [5] is recorded as “very weak to no HDAC inhibitory activity”. In the data set with HEK293F cells [1] (3 mM), the cytotoxicity result is listed as “cytotoxic”. In addition, the “toxicity (remark in productivity cell)” value in the data set with HEK293F cells [1] (employed concentration 3 mM) is “toxic”. Also, in the data set on HEK293F cells [3] (2 mM, in words), the TGE enhancement entry was “Weak TGE enhancement”. Besides, in the data set with HEK293F cells [3] (Homo sapiens, HEK293F, employed concentration 2 mM, none=100, N=2, FIG. 4, read-out: relative cell specific productivity), the activity at 2000 µM was determined as 155%. In addition, the activity at 3000 µM with HEK293F cells [3] (Homo sapiens, HEK293F, employed concentration 3 mM, none=100, N=2, FIG. 4, read-out: relative cell specific productivity) is 0%.

B1: Flagellin: Flagellin from Salmonella typhimurium, TLR5 agonist, NFκB activator (protein, UniProt P06179 2-495, looked up)
Flagellin: AQVINTNSLSLLTQNNLNKSQSALGTAIERLSSGLRINSAKDDAAGQAIANRFTANIKGLTQASRNANDGISIAQTTEGALNEINNNLQRVRELAVQSANSTNSQSDLDSIQAEITQRLNEIDRVSGQTQFNGVKVLAQDNTLTIQVGANDGETIDIDLKQINSQTLGLDTLNVQQKYKVSDTAATVTGYADTTIALDNSTFKASATGLGGTDQKIDGDLKFDDTTGKYYAKVTVTGGTGKDGYYEVSVDKTNGEVTLAGGATSPLTGGLPATATEDVKNVQVANADLTEAKAALTAAGVTGTASVVKMSYTDNNGKTIDGGLAVKVGDDYYSATQNKDGSISINTTKYTADDGTSKTALNKLGGADGKTEVVSIGGKTYAASKAEGHNFKAQPDLAEAAATTTENPLQKIDAALAQVDTLRSDLGAVQNRFNSAITNLGNTVNNLTSARSRIEDSDYATEVSNMSRAQILQQAGTSVLAQANQVPQNVLSLLR
B1: the toxicity entry in the data set with HEK293F cells [1] (compared amongst NFκB activators) is “mildest toxicity”. Moreover, the “relative cell specific productivity” value in the data set on HEK293F cells [3] (2 ng/mL, none=100, N=3, FIG. 6A) is given as 135%; with HEK293F cells [3] (2 ng/mL, none=100, N=3, FIG. 8A), 135%; in the data set with HEK293F cells [3] (2 ng/mL, single treatment, none=100, N=3) it was 134%; with HEK293F cells [3] (10 ng/mL, none=100, N=2, FIG. 5), 154%. Besides, in the data set with HEK293F cells [3] (2 ng/mL, single treatment, N=3), the “specific productivity after 96 hours” value turned out to be 2.27 pg/cell/day. In addition, the “TGE enhancement after BAY11-7082 treatment compared to the corresponding single treatment” value in the data set with HEK293F cells [3] (BAY11-7082 added 24 hours after stimulation) is on record as “significantly reduced”. Further, the “relative IgG concentration” value in the data set with HEK293F cells [4] (2 ng/mL, none=100, N=3, FIG. 6B) is listed as 133%; in the data set with HEK293F cells [4] (2 ng/mL, none=100, N=3, FIG. 8B), 128%.
